Assay results reported in patent US12122821B2, “Regulation of glucose metabolism using anti-CGRP antibodies” (H. LUNDBECK A/S, priority 2013, dated 2024).

Tests used:
HFD rats = assay: Body weight and food intake in high fat/high fructose diet (HFD) rats (Example 2); type: in vivo, rat; conditions: vs HFD vehicle
Method: After 6 weeks of HFD rats were randomized to treatment groups according to their glucose intolerance (AUC calculation during an oral glucose tolerance test (OGTT)) and their HOMA-IR (insulin resistance index).
Body weight and food consumption were measured 3 times per week until 10 days of treatment. HOMA-IR was measured on day 10 and 15. A 2-step clamp (5 mU/kg/min and then 15 mU/kg/min insulin) was performed on day 15 or 16. Glucose Turnover (GTO) was assessed using ^3H-glucose tracer infusion during the clamp procedure.
Ab14 (10, 30, 100 mg/kg) and the vehicle were weekly administered via i.v. route (via the caudal vein, under isoflurane anaesthesia), in the morning, on day 1 and day 8 of treatment.
Body weight was measured once a week during the first six week of HFD. Body weight was measured 3 times per week during the first 10 days of treatment. Food consumption was measured over 48 h or 72 h, just before treatment and 3 times per week during treatment until surgery procedure (day 11).

[1] = tested on: Zucker diabetic fatty (ZDF) rat; assay: Oral glucose tolerance test on day 26 in ZDF rats (Example 3); type: in vivo
Method: The oral glucose tolerance test (OGTT) was performed as follows. On day 25, rats were fasted at ˜6:00 pm and an oral glucose tolerance test was performed the day after (on day 26). At ˜8:00 am (T-60) a blood collection (110 μL, EDTA) was performed for biochemical parameters measurements. One hour after (˜09:00 am), an oral glucose bolus (1.5 g/kg) was administered (T0). Blood glucose was measured (glucometer or colorimetric method in case of high glycaemia) on T-60, T0, T15, T30, T60, T90, T120, and T180 minutes. Area under the curve (AUC) was calculated based on the blood glucose values measured at T0. Plasma insulin and C-peptide were measured (ELISA method) on T-60, T15 (·40 μL of blood, EDTA), and T30 minutes (·40 μL of blood, EDTA).

[2] = tested on: Zucker diabetic fatty (ZDF) rat; assay: Pancreas insulin and proinsulin content in ZDF rats (Example 3); type: in vivo; conditions: day 28, AB14 60 mg/kg, metformin 200 mg/kg/day, alone or combined, vs vehicle
Method: After 2 hours of food restriction (from 8:00 am to 10:00 am) 80 rats from the study were anesthetized on day 28 with isoflurane. Blood was collected (˜3000 μL from abdominal vein, on K2-EDTA) for the determination of AB14 plasma concentrations. Plasma (3 aliquots of ˜200 μL) was kept at −80° C. until testing. The pancreas tissue was then excised. Rats were euthanized by incision of the abdominal vein and aorta.
Each pancreas was divided into 2 parts (longitudinal cut).
Each pancreas sample was homogenized in an acid buffer, and insulin and proinsulin content were measured using ELISA kits in the following groups: […]

[3] = tested on: Zucker diabetic fatty (ZDF) rat; conditions: ZDF rats
Method: Each pancreas was divided into 2 parts (longitudinal cut). One piece was fixed in 10% formalin solution for histopathological processing. The other piece of pancreas was flash frozen and kept at −80° C. for determination of insulin and proinsulin levels.
Each pancreas sample was fixed in 4% formalin during 24-48 hours maximum; the volume of formalin was 5-10 times higher than the sample volume to assure appropriate fixation. After 48 h, the samples were placed in 70% ethanol.

[4] = Ab14 10, 30, 100 mg/kg/week i.v., metformin 200 mg/kg/day
[5] = Ab14 60 mg/kg/wk., Met. 200 mg/kg/day

`CN(C)C(=N)N=C(N)N` [metformin, reference compound] was tested, and the body weight (HFD rats; 10 days of treatment, Ab14 10, 30, 100 mg/kg/week i.v., metformin 200 mg/kg/day) was “significantly decreased”, the body weight gain (HFD rats; Ab14 30 mg/kg, metformin 200 mg/kg) was “significantly decreased” and the “decrease of cumulative food consumption” value (HFD rats; [4]) was 25%. For the same compound, the “food consumption (follow-up food intake)” value (HFD rats; [4]) was “significantly decreased”, the “plasma insulin and C-peptide levels 15 and 30 minutes after the glucose load” value ([1]; day 26, metformin 200 mg/kg/day, pioglitazone 10 mg/kg/day, vs vehicle) was “slightly increased” and the “reduction in blood glucose AUC (OGTT)” value ([1]; day 26, pioglitazone 10 mg/kg/day, metformin 200 mg/kg/day, vs vehicle ZDF) was 6%. The pancreas proinsulin levels [2] was “completely prevented reductions”, the pancreatic insulin levels [2] was “significantly increased” and the “vacuolization and islet fibrosis severity” value ([3]; AB14 60 mg/kg, metformin, or combined, vs vehicle ZDF) was “trend towards a decrease”. For the same compound, the “Arteries, medial/intimal hypertrophy, severity 0, incidence” value [3, 5] was 9, the “Arteries, medial/intimal hypertrophy, severity 1, incidence” value [3, 5] was 1 and the “Brown pigment-laden, severity 1, incidence” value [3, 5] was 7. The “Brown pigment-laden, severity 2, incidence” value [3, 5] was 3, the “Eosinophilic granulocyte infiltration, severity 0, incidence” value [3, 5] was 10 and the “Exocrine cell vacuolation, severity 0, incidence” value [3, 5] was 10. For the same compound, the “Fat tissue: Fat tissue necrosis, group mean score” value [3, 5] was 0, the “Interstitial fibroplasia/fibrosis, severity 0, incidence” value [3, 5] was 9 and the “Interstitial fibroplasia/fibrosis, severity 1, incidence” value [3, 5] was 1. For the same compound, the “Interstitial hemorrhage, severity 0, incidence” value [3, 5] was 4, the “Interstitial hemorrhage, severity 1, incidence” value [3, 5] was 6 and the “Islet Cell Vacuolation, severity 0, incidence” value [3, 5] was 1. The “Islet Cell Vacuolation, severity 1, incidence” value [3, 5] was 4, the “Islet Cell Vacuolation, severity 2, incidence” value [3, 5] was 5 and the “Islet Fibrosis, severity 1, incidence” value [3, 5] was 3. The “Islet Fibrosis, severity 2, incidence” value [3, 5] was 7, the “Islet cell anisocytosis/anisokaryosis, severity 0, incidence” value [3, 5] was 2 and the “Islet cell anisocytosis/anisokaryosis, severity 1, incidence” value [3, 5] was 8. For the same compound, the “Islet cell mitosis, severity 0, incidence” value [3, 5] was 5, the “Islet cell mitosis, severity 1, incidence” value [3, 5] was 5 and the “Islet cell single cell necrosis, severity 0, incidence” value [3, 5] was 7. The “Islet cell single cell necrosis, severity 1, incidence” value [3, 5] was 3, the “Islet granulocytic infiltration, severity 0, incidence” value [3, 5] was 6 and the “Islet granulocytic infiltration, severity 1, incidence” value [3, 5] was 4. For the same compound, the “Islet hemorrhage, severity 0, incidence” value [3, 5] was 8, the “Islet hemorrhage, severity 1, incidence” value [3, 5] was 2 and the “Large/Giant Islets, severity 0, incidence” value [3, 5] was 1. For the same compound, the “Large/Giant Islets, severity 1, incidence” value [3, 5] was 1, the “Large/Giant Islets, severity 2, incidence” value [3, 5] was 3 and the “Large/Giant Islets, severity 3, incidence” value [3, 5] was 5. The “Lymph node: Brown pigment-laden macrophages, group mean score” value [3, 5] was 0, the “Lymph node: Eosinophilic granulocyte infiltration, group mean score” value [3, 5] was 0.5 and the “Lymph node: Erythrophagocytosis—sinusoidal, group mean score” value [3, 5] was 0. The “Lymph node: Pink protein rich sinusoidal lymph, group mean score” value [3, 5] was 0, the “Lymph node: Sinusoidal hemorrhage, group mean score” value [3, 5] was 0 and the “Lymph node: Sinusoidal mast cells, group mean score” value [3, 5] was 0. The “Mononuclear cell infiltration, severity 1, incidence” value [3, 5] was 10, the “Pancreas: Arteries, medial/intimal hypertrophy, group mean score” value [3, 5] was 0 and the “Pancreas: Brown pigment-laden macrophages, group mean score” value [3, 5] was 1. The “Pancreas: Eosinophilic granulocyte infiltration, group mean score” value [3, 5] was 0, the “Pancreas: Exocrine cell vacuolation, group mean score” value [3, 5] was 0 and the “Pancreas: Interstitial fibroplasia/fibrosis, group mean score” value [3, 5] was 0. For the same compound, the “Pancreas: Interstitial hemorrhage, group mean score” value [3, 5] was 1, the “Pancreas: Islet cell anisocytosis/anisokaryosis, group mean score” value [3, 5] was 1 and the “Pancreas: Islet cell mitosis, group mean score” value [3, 5] was 0.5. For the same compound, the “Pancreas: Islet cell single cell necrosis, group mean score” value [3, 5] was 0, the “Pancreas: Islet cell vacuolation, group mean score” value [3, 5] was 1.5 and the “Pancreas: Islet fibrosis, group mean score” value [3, 5] was 2. The “Pancreas: Islet granulocytic infiltration, group mean score” value [3, 5] was 0, the “Pancreas: Islet hemorrhage, group mean score” value [3, 5] was 0 and the “Pancreas: Large/giant islet(s), group mean score” value [3, 5] was 2.5. For the same compound, the “Pancreas: Mononuclear cell infiltration, group mean score” value [3, 5] was 1, the “Pancreas: Pancreatic ductule hyperplasia, group mean score” value [3, 5] was 0.5 and the “Pancreatic ductule hyperplasia, severity 0, incidence” value [3, 5] was 5. The “Pancreatic ductule hyperplasia, severity 1, incidence” value [3, 5] was 5.
